Measurements as given in patent publication US20160166627A1, “JOINT HEALTH COMPOSITIONS” (NESTEC S.A., priority 2013, published 2016).
Where a name gives a salt, the structure may show the parent alone.

System: tumor necrosis factor α (TNF-α)
Assay: Serum TNF-α (inflammation marker) in ovariectomized rats, Rat TNF-α Platinum ELISA
Format: in vivo, Sprague-Dawley rats
Settings: week 12 (end of study), vs OVX group, P<0.05
Procedure: Ovariectomized (OVX) rats were used as a model to mimic osteoarthritis in healthy postmenopausal women. The effect of fructus corni on suppressing markers of cartilage degeneration, cross linked C-telopeptide of type 2 collagen (CTX-II) and inflammation, tumor necrosis factor α (TNF-α), was examined. Seven month-old female Sprague-Dawley rats were purchased from Beijing Weitong Lihua Laboratory Animal Centre. Surgery was performed by the research team in Shenyang Medical College. The rats were anaesthetized with Hypnorm™/Dormicum™ (1 part Hypnorm™+1 part Dormicum™+2 parts sterile water) given by injection at 0.2 ml/100 g body weight. After anaesthesia the animal was shaved on the back and the skin disinfected. A single incision in the skin was made above the spine, providing access to both ovaries. The muscles were cut to provide access and the ovaries were located and removed by cutting. The muscle on each side was closed with 1-2 stitches, and the skin was closed with 3-4 stitches. […] Rats in group F had free access to distilled water containing 0.5% glucosamine and the amount of water consumed was recorded for each rat. […] CTX-II was measured using the Serum Preclinical Cartilaps ELISA (Nordic Bioscience, Herlev, Denmark). […] Serum TNFα was measured using Rat TNF-α Platinum ELISA (eBioscience, USA) for the serum collected at the end of the study only. […] Data were expressed as means±SD. […]

How did the “serum TNF-α concentration, increase induced by OVX” value turn out when `N[C@H]1C(O)O[C@H](CO)[C@@H](O)[C@@H]1O` (stereo partly shown) [glucosamine, Glucosamine (GS) hydrochloride] was run?
Its value is “not observed”.
